Data on 54 substances can be found in patent publication US11292821B2, “Peptides and combination of peptides for use in immunotherapy against lung cancer, including NSCLC, SCLC and other cancers” (Immatics Biotechnologies GmbH, priority 2017, dated 2022).

The subject of one experiment is CD8+ T cells. The experiment in a line: In vitro T-cell priming assay with aAPCs (in vitro immunogenicity for MHC class I presented peptides). As to conditions: in vitro immunogenicity, HLA B*07. It counts as cell-based, human.
Another experiment addresses HLA-B*07 (Homo sapiens, UniProt P01889). As to the kind of experiment: MHC binding assay (UV-ligand exchange, β2m ELISA). From the text: Candidate peptides for T cell based therapies according to the present invention were further tested for their MHC binding capacity (affinity). The individual peptide-MHC complexes were produced by UV-ligand exchange, where a UV-sensitive peptide is cleaved upon UV-irradiation, and exchanged with the peptide of interest as analyzed. Only peptide candidates that can effectively bind and stabilize the peptide-receptive MHC molecules prevent dissociation of the MHC complexes. To determine the yield of the exchange reaction, an ELISA was performed based on the detection of the light chain (β2m) of stabilized MHC complexes. The assay was performed as generally described in Rodenko et al. (Rodenko et al., 2006).
96 well MAXISorp plates (NUNC) were coated over night with 2 ug/ml streptavidin in PBS at room temperature, washed 4× and blocked for 1 h at 37° C. in 2% BSA containing blocking buffer. […] Peptide-MHC monomers of the UV-exchange reaction were diluted 100-fold in blocking buffer. Samples were incubated for 1 h at 37° C., washed four times, incubated with 2 ug/ml HRP conjugated anti-β2m for 1h at 37° C., washed again and detected with TMB solution that is stopped with […]. Absorption was measured at 450 nm. Candidate peptides that show a high exchange yield (preferably higher than 50%, most preferred higher than 75%) are generally preferred for a generation and production of antibodies or fragments thereof, and/or T cell receptors or fragments thereof, as they show sufficient avidity to the MHC molecules and prevent dissociation of the MHC complexes.
(An ELISA detects its analyte on a solid surface through an enzyme-linked reagent.)

The subject of another experiment is HLA-B*44. As to the kind of experiment: MHC binding assay (UV-ligand exchange, β2m ELISA). On the set-up: species or system human. As to conditions: UV-ligand exchange, β2m ELISA.

Take “293 (RPRSALPRLLLP; listed as Homo sapiens) [compound 293]”: the “Wells positive [%]” value in the experiment on CD8+ T cells is listed as ““++” (20%-49% = ++)”. In the experiment with HLA-B*07, the “Peptide exchange (peptide exchange yield, MHC class I binding score)” value (“Peptide exchange” below) is listed as ““++++” (>75% = ++++)”. On to “294 (GPTPNTGAAL; listed as Homo sapiens) [compound 294]”, for which the “Wells positive [%]” value with CD8+ T cells is recorded as ““+++” (50%-69% = +++)”. Besides, the “Peptide exchange” value with HLA-B*07 is listed as ““++++” (>75% = ++++)”.

On to “319 (AEMLERVIKNY; listed as Homo sapiens) [compound 319]”, for which the “Peptide exchange” value with HLA-B*44 is ““++++” (>75% = ++++)”. Consider “321 (AEMLESVIKNY; listed as Homo sapiens) [compound 321]”, for which the “Peptide exchange” value in the experiment with HLA-B*44 is listed as ““+++” (>50 =+++)”. For “324 (TDSIHAWTF; listed as Homo sapiens) [compound 324]”, the “Peptide exchange” value with HLA-B*44 is given as ““+++” (>50 =+++)”. Consider “327 (YEIEARNQVF; listed as Homo sapiens) [compound 327]”, for which the “Peptide exchange” value in the experiment on HLA-B*44 was ““+++” (>50 =+++)”. In the case of “332 (MEVPVIKI; listed as Homo sapiens) [compound 332]”, in the experiment on HLA-B*44, the “Peptide exchange” value is recorded as ““++” (>20% = ++)”. Still for that read-out and setting: the same measure for “335 (KELEATKQY; listed as Homo sapiens) [compound 335]”: ““++” (>20% = ++)”. Still for that read-out and setting: next, “336 (ASSSGPMRWW; listed as Homo sapiens) [compound 336]”: ““++” (>20% = ++)”; “341 (EEIEGKGSFTYF; listed as Homo sapiens) [compound 341]”: ““+++” (>50 =+++)”.

“343 (TEFTTVLY; listed as Homo sapiens) [compound 343]”: the “Peptide exchange” value in the experiment on HLA-B*44 is ““++” (>20% = ++)”. As to “344 (EEATGQFHVY; listed as Homo sapiens) [compound 344]”, in the experiment on HLA-B*44, the “Peptide exchange” value is ““+++” (>50 =+++)”. Take “345 (IEFIHPQAF; listed as Homo sapiens) [compound 345]”: in the experiment on HLA-B*44, the “Peptide exchange” value is recorded as ““++++” (>75% = ++++)”. As for “346 (VEAPGPVHVYW; listed as Homo sapiens) [compound 346]”, the “Peptide exchange” value in the experiment on HLA-B*44 is on record as ““++++” (>75% = ++++)”.

For the substance “347 (ALNPYQYQY; listed as Homo sapiens) [compound 347]”, in the experiment with HLA-B*44, the “Peptide exchange” value is ““+++” (>50 =+++)”. Same read-out and setting: the same measure for “348 (AEIQGNINHV; listed as Homo sapiens) [compound 348]”: ““+++” (>50 =+++)”; for “349 (AEQDMRELTY; listed as Homo sapiens) [compound 349]”: ““+++” (>50 =+++)”; for “350 (GECDVFKEIL; listed as Homo sapiens) [compound 350]”: ““+++” (>50 =+++)”.

“351 (EEVNYINTF; listed as Homo sapiens) [compound 351]”: the “Peptide exchange” value with HLA-B*44 is listed as ““+++” (>50 =+++)”.

As for “352 (NEVLTYIKF; listed as Homo sapiens) [compound 352]”, the “Peptide exchange” value in the experiment on HLA-B*44 is ““++++” (>75% = ++++)”. As to “353 (GEIIMQNNW; listed as Homo sapiens) [compound 353]”, the “Peptide exchange” value in the experiment with HLA-B*44 is recorded as ““++++” (>75% = ++++)”. As for “354 (TEDPTILRI; listed as Homo sapiens) [compound 354]”, the “Peptide exchange” value in the experiment on HLA-B*44 is on record as ““+++” (>50 =+++)”. Consider “355 (SDMVRFHLF; listed as Homo sapiens) [compound 355]”, for which the “Peptide exchange” value in the experiment on HLA-B*44 was ““++” (>20% = ++)”. Take “356 (EEGRVYLF; listed as Homo sapiens) [compound 356]”: in the experiment on HLA-B*44, the “Peptide exchange” value was ““+++” (>50 =+++)”. On to “357 (RELENCFQIQ; listed as Homo sapiens) [compound 357]”, for which the “Peptide exchange” value with HLA-B*44 was ““+++” (>50 =+++)”. Regarding “358 (KEADIHFLI; listed as Homo sapiens) [compound 358]”, the “Peptide exchange” value in the experiment on HLA-B*44 was ““++++” (>75% = ++++)”.

With “359 (DELFSIALY; listed as Homo sapiens) [compound 359]”, the “Peptide exchange” value with HLA-B*44 was ““+++” (>50 =+++)”. Take “360 (AEVPTGVII; listed as Homo sapiens) [compound 360]”: in the experiment with HLA-B*44, the “Peptide exchange” value was ““++++” (>75% = ++++)”. Take “361 (SENLFFASF; listed as Homo sapiens) [compound 361]”: the “Peptide exchange” value with HLA-B*44 is ““++++” (>75% = ++++)”.

On to “362 (SEKGVIQVY; listed as Homo sapiens) [compound 362]”, for which the “Peptide exchange” value with HLA-B*44 is given as ““+++” (>50 =+++)”. With “363 (AELDKLTSV; listed as Homo sapiens) [compound 363]”, the “Peptide exchange” value with HLA-B*44 was ““+++” (>50 =+++)”. Turning to “364 (AETPIQNVI; listed as Homo sapiens) [compound 364]”, the “Peptide exchange” value in the experiment on HLA-B*44 is ““+++” (>50 =+++)”. On the same count and under the same terms, next, “365 (SEMNVNMKY; listed as Homo sapiens) [compound 365]”: ““++++” (>75% = ++++)”. The same measure, in the same setting: the same measure for “366 (AENLFRAF; listed as Homo sapiens) [compound 366]”: ““++” (>20% = ++)”.

Turning to “367 (GEVHPSEMI; listed as Homo sapiens) [compound 367]”, the “Peptide exchange” value with HLA-B*44 is ““+++” (>50 =+++)”.

With “368 (GEFPVRVQV; listed as Homo sapiens) [compound 368]”, the “Peptide exchange” value in the experiment on HLA-B*44 is listed as ““++” (>20% = ++)”.

On to “369 (EEIERFFKL; listed as Homo sapiens) [compound 369]”, for which the “Peptide exchange” value in the experiment on HLA-B*44 is ““+++” (>50 =+++)”. As to “370 (YEDLSQKY; listed as Homo sapiens) [compound 370]”, the “Peptide exchange” value with HLA-B*44 is reported as ““+” (>10% = +)”.

As for “371 (GELALKKKI; listed as Homo sapiens) [compound 371]”, the “Peptide exchange” value in the experiment on HLA-B*44 is reported as ““++” (>20% = ++)”.

As to “372 (TEGIIMKDF; listed as Homo sapiens) [compound 372]”, the “Peptide exchange” value with HLA-B*44 is reported as ““++” (>20% = ++)”. For “373 (MEMQKSPVF; listed as Homo sapiens) [compound 373]”, the “Peptide exchange” value in the experiment on HLA-B*44 is ““+++” (>50 =+++)”.

As to “374 (DEVNFLVY; listed as Homo sapiens) [compound 374]”, the “Peptide exchange” value in the experiment on HLA-B*44 was ““+” (>10% = +)”. As for “460 (MPMAGDMNGL; listed as Homo sapiens) [compound 460]”, the “Wells positive [%]” value with CD8+ T cells is listed as ““++” (20%-49% = ++)”. For the same substance, in the experiment with HLA-B*07, the “Peptide exchange” value was ““++++” (>75% = ++++)”. “462 (RPFHTRATV; listed as Homo sapiens) [compound 462]”: the “Wells positive [%]” value in the experiment on CD8+ T cells is reported as ““++” (20%-49% = ++)”. The “Peptide exchange” value in the experiment with HLA-B*07 is recorded as ““++++” (>75% = ++++)”. The like results for “463 (TPKAGPTL; listed as Homo sapiens) [compound 463]” were, in that order, ““+” (<20% = +)” and ““++++” (>75% = ++++)”. For the substance “473 (LPRALLSSL; listed as Homo sapiens) [compound 473]”, the “Wells positive [%]” value in the experiment with CD8+ T cells was ““++” (20%-49% = ++)”. Moreover, the “Peptide exchange” value in the experiment with HLA-B*07 is ““++++” (>75% = ++++)”. The like results for “474 (LPRLLPAL; listed as Homo sapiens) [compound 474]” were, in that order, ““+++” (50%-69% = +++)” and ““++++” (>75% = ++++)”.

As to “478 (SEIEQEIGSL; listed as Homo sapiens) [compound 478]”, the “Peptide exchange” value in the experiment with HLA-B*44 was ““+++” (>50 =+++)”.

Consider “479 (AEIQPQTQV; listed as Homo sapiens) [compound 479]”, for which the “Peptide exchange” value in the experiment on HLA-B*44 is given as ““+++” (>50 =+++)”. As to “480 (GEVSGLTKDF; listed as Homo sapiens) [compound 480]”, the “Peptide exchange” value with HLA-B*44 is listed as ““++” (>20% = ++)”. Still for that read-out and setting: next, “481 (RELQHEHSL; listed as Homo sapiens) [compound 481]”: ““+++” (>50 =+++)”; “482 (TEREWADEW; listed as Homo sapiens) [compound 482]”: ““+++” (>50 =+++)”. Still for that read-out and setting: next, “483 (EENDQSTHKW; listed as Homo sapiens) [compound 483]”: ““+++” (>50 =+++)”; “484 (AEVGFVRFF; listed as Homo sapiens) [compound 484]”: ““++++” (>75% = ++++)”.
